23 compounds from ChEMBL document CHEMBL4476867, “Hydroxy formamide derivatives and their use” (2016) can be followed below.

A short description of assay [1]: Reduction in PICP levels in human cardiac fibroblasts incubated for 24 to 48 hrs by ELISA. In kind it is functional. The method, boiled down: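 Procollagen I C-terminal propeptide in the culture medium was quantified using a Quidel ELISA. The cells were human cardiac fibroblasts of passage 6 or below, seeded at 10,000 to 15,000 cells per well in 96-well plates and treated the next day in ficoll crowding EMEM with 100 μM ascorbic acid and under 0.3% DMSO. Treatment lasted 24 to 48 hr at 37° C. For IC50, levels normalized to untreated controls were fitted to a log(inhibitor)-response equation in GraphPad Prism.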
A general note: An ELISA detects its analyte on a solid surface through an enzyme-linked reagent.

Assay [2] has as its target T1, Bone morphogenetic protein 1 (Homo sapiens, UniProt P13497).
T1 sequence (P13497 whole entry): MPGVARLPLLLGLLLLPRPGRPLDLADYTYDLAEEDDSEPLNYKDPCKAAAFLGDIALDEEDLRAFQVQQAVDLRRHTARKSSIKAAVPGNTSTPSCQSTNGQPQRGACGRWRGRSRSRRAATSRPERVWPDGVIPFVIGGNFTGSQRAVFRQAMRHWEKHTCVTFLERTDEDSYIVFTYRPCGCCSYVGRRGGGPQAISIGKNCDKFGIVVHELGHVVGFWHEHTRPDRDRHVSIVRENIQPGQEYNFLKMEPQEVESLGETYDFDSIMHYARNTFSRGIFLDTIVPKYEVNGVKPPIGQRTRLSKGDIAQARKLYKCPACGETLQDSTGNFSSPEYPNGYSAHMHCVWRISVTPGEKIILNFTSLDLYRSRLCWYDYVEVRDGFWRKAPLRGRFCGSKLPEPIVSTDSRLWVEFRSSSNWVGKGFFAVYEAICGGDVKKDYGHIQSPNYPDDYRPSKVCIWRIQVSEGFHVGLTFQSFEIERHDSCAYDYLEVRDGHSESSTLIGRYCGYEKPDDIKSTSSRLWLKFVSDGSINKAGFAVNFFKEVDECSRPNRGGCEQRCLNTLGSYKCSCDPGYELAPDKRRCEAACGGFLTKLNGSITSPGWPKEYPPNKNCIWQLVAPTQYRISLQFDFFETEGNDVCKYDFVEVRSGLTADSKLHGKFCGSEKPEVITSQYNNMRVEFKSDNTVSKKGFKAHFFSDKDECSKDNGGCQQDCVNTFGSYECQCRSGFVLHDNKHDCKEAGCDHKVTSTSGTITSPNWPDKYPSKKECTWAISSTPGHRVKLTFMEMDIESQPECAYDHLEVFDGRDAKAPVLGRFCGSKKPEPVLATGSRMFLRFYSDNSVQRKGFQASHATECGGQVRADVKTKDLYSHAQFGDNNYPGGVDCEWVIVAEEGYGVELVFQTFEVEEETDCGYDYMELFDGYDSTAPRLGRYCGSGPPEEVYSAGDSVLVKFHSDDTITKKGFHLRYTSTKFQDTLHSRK
In words: Inhibition of C-terminal FLAG-6x-His epitope tagged and N-terminal human RAGE signal sequence tagged human BMP1 (23 to 721 amino acids) expressed in CHO-E1 cells pre-incubated for 10 mins before promyostatin peptide substrate addition and measured after 30 mins using 50 nM BMP1 by FRET based assay. The format is cell-based.

Assay [3] addresses T1, Bone morphogenetic protein 1. The assay can be described thus: Inhibition of C-terminal FLAG-6x-His epitope tagged and N-terminal human RAGE signal sequence tagged human BMP1 (23 to 721 amino acids) expressed in CHO-E1 cells pre-incubated for 10 mins before promyostatin peptide substrate addition and measured after 60 mins using 0.5 nM BMP1 by FRET based assay. In kind it is cell-based.

A further assay deals with Tolloid-like protein 1 (Homo sapiens, UniProt O43897, I156V/N221S/V284A). The assay can be described thus: Inhibition of recombinant human TLL1 I156V/N221S/V284A mutant expressed in CHOE1A cells pre-incubated for 10 mins before promyostatin peptide substrate addition and measured after 60 mins by FRET based assay. The format is cell-based.
Tolloid-like protein 1, sequence (O43897 148-1013 I156V/N221S/V284A limits assumed): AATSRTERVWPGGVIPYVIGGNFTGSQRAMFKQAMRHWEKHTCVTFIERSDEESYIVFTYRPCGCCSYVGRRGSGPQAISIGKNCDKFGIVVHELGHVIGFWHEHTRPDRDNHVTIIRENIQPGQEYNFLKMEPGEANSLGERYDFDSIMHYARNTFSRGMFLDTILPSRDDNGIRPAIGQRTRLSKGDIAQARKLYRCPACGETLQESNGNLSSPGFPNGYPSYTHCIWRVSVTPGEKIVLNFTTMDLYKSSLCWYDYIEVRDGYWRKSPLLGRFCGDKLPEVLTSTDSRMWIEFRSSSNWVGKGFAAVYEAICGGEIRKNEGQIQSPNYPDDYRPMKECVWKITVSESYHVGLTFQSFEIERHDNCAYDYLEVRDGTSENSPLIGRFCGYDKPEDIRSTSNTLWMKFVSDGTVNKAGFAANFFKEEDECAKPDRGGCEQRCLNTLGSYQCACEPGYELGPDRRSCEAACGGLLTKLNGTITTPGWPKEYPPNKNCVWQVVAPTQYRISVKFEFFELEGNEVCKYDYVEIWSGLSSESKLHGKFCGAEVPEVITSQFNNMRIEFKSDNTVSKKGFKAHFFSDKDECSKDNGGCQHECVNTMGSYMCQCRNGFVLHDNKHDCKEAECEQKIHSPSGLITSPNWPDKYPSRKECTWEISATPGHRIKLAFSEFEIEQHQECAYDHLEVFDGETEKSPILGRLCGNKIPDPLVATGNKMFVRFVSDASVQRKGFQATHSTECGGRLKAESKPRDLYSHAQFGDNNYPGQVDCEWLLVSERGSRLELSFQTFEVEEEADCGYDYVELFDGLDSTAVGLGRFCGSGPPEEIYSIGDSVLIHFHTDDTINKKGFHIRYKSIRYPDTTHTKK
For the next assay, the target named is T2, Tolloid-like protein 2 (Homo sapiens, UniProt Q9Y6L7).
T2 sequence (Q9Y6L7 whole entry): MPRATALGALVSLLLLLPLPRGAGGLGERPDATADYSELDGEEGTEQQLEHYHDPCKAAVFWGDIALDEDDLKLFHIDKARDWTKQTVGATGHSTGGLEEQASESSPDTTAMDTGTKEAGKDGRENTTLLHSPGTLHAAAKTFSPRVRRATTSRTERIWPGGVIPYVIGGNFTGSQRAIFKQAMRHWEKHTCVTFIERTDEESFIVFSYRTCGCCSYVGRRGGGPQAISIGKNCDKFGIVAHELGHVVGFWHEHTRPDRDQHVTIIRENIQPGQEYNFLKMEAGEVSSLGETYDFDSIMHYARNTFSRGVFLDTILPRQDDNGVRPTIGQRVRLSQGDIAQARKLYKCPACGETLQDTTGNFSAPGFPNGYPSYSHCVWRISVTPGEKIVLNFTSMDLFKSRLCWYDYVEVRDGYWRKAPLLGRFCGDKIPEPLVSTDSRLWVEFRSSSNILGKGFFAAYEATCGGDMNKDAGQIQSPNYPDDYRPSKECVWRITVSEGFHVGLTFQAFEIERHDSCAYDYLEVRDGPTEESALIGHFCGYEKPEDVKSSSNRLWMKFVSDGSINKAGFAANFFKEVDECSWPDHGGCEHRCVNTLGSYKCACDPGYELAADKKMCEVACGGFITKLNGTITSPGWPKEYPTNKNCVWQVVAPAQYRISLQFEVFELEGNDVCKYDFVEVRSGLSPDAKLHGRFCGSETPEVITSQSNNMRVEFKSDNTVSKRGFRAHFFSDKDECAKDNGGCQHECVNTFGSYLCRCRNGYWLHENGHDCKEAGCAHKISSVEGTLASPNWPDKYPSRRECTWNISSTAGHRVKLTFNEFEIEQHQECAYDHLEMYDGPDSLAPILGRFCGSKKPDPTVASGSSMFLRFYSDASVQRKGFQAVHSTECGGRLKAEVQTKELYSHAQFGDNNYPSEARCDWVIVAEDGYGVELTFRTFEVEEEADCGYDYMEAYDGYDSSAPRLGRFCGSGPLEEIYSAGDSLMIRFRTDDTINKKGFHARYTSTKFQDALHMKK
In words: Inhibition of C-terminal Avi-6x-His epitope tagged and N-terminal human RAGE signal sequence tagged recombinant human TLL2 (26 to 1015 amino acids) expressed in CHOE1A cells incubated for 60 mins with promyostatin peptide substrate by FRET based assay. In kind it is cell-based.

One may read the IC50 as the concentration that gives 50% inhibition. Regarding `CCCCC[C@H](CN(O)C=O)C(=O)NCNC(=O)c1ccc(-c2cccc(OCC)c2)o1`, the IC50 in assay [1] was below 3980 nM; in assay [2], below 200 nM; in assay [3], below 126 nM; at Tolloid-like protein 1, below 398 nM; on Tolloid-like protein 2, below 794 nM.
The matching figures for `CCCCC[C@@H](C(=O)NCNC(=O)c1ccc(-c2ccc(C(=O)O)c(OCC)c2)o1)[C@@H](CC)N(O)C=O`: below 3980 nM, below 200 nM, below 126 nM, below 398 nM and below 794 nM.
With `CCCCC[C@H](CN(O)C=O)C(=O)NCNC(=O)c1ccc(-c2cccc(OCC(F)(F)F)c2)o1`, the IC50 in assay [1] is below 3980 nM; in assay [2], below 200 nM; in assay [3] it was below 126 nM; on Tolloid-like protein 1, below 398 nM; on Tolloid-like protein 2 it was below 794 nM.
Consider `CCCCC[C@@H](C(=O)NCNC(=O)C1CCC(c2ccccc2)O1)[C@@H](CC)N(O)C=O` (some centres undefined), for which the IC50 in assay [2] is below 200 nM; in assay [3], below 126 nM; on Tolloid-like protein 1, below 398 nM; at Tolloid-like protein 2 it was below 794 nM.
On to `CCCCC[C@H](CN(O)C=O)C(=O)NCNC(=O)c1ccc(-c2cccc(N(C)C)c2)o1`, for which the IC50 in assay [1] was below 3980 nM; in assay [2], below 200 nM; in assay [3] it was below 126 nM; at Tolloid-like protein 1 it was below 398 nM; at Tolloid-like protein 2, below 794 nM.
In the case of `CCCCC[C@H](CN(O)C=O)C(=O)NCNC(=O)c1ccc(-c2ccc3cn(C)nc3c2)o1`, the IC50 in assay [2] was below 200 nM; in assay [3], below 126 nM; on Tolloid-like protein 1, below 398 nM; at Tolloid-like protein 2, below 794 nM.
Turning to `CCCCC[C@@H](C(=O)NCNC(=O)c1ccc(-c2ccc(C)c(C(=O)O)c2)o1)[C@@H](CC)N(O)C=O`, the IC50 in assay [2] was below 200 nM; in assay [3], below 126 nM; at Tolloid-like protein 1, below 398 nM; on Tolloid-like protein 2, below 794 nM.
With `CCCCC[C@@H](C(=O)NCNC(=O)c1ccc(-c2cc(CC(=O)O)cc(OCC)c2)o1)[C@@H](CC)N(O)C=O`, the IC50 is below 3980 nM in assay [1], below 200 nM in assay [2] and below 126 nM in assay [3].
For `CCCCC[C@@H](C(=O)NCNC(=O)c1ccc(-c2cccc(OCCC)c2)o1)[C@@H](CC)N(O)C=O`, the IC50 in assay [2] was below 200 nM; in assay [3], below 126 nM; on Tolloid-like protein 1, below 398 nM; at Tolloid-like protein 2 it was below 794 nM.
For `CCCCC[C@H](CN(O)C=O)C(=O)NCNC(=O)c1ccc(-c2cccc(OC(C)C)c2)o1`, the IC50 in assay [1] was below 3980 nM; in assay [2], below 200 nM; in assay [3] it was below 126 nM; on Tolloid-like protein 1 it was below 398 nM.
In the case of `CCCCC[C@@H](C(=O)NCNC(=O)c1ccc(-c2cc(OCC)cc(C(=O)NCC(=O)O)c2)o1)[C@@H](CC)N(O)C=O`, the IC50 in assay [1] was below 3980 nM; in assay [2] it was below 200 nM; in assay [3], below 126 nM.
On to `CCCCC[C@H](CN(O)C=O)C(=O)NCNC(=O)c1ccc(-c2cc(OC)ccn2)o1`, for which the IC50 in assay [1] was below 3980 nM; in assay [2], below 200 nM; in assay [3], below 126 nM; on Tolloid-like protein 1 it was below 398 nM; on Tolloid-like protein 2, below 794 nM.
The matching figures for `CCCCC[C@H](CN(O)C=O)C(=O)NCNC(=O)c1ccc(-c2cc(OCC)cc(C(=O)OC)c2)o1`: below 3980 nM, below 200 nM, below 126 nM, below 398 nM and below 794 nM.
The matching figures for `CCCCC[C@H](CN(O)C=O)C(=O)NCNC(=O)c1ccc(-c2cccc(OC(F)(F)F)c2)o1`: below 3980 nM, below 200 nM, below 126 nM, below 398 nM and below 794 nM.
The like results for `CCCCC[C@H](CN(O)C=O)C(=O)NCNC(=O)c1ccc(-c2cccc(C(=O)OC)c2)o1` were, in that order, below 3980 nM, below 200 nM, below 126 nM, below 398 nM and below 794 nM.
In the case of `CCCCC[C@H](CN(O)C=O)C(=O)NCNC(=O)c1ccc(-c2cc(OCC)cc(C(=O)NCCN)c2)o1`, the 50% inhibitory concentration (IC50) in assay [1] was below 3980 nM; in assay [2], below 200 nM; in assay [3] it was below 126 nM.
As for `CCCCC[C@H](CN(O)C=O)C(=O)NCNC(=O)c1ccc(-c2cccc(S(=O)(=O)NC(=O)CC)c2)o1`, the IC50 in assay [1] was below 3980 nM; in assay [2], below 200 nM; in assay [3], below 126 nM; on Tolloid-like protein 1, below 398 nM; on Tolloid-like protein 2 it was below 794 nM.
Regarding `CCCCC[C@@H](C(=O)NCNC(=O)c1ccc(-c2cccc(/C(N)=N/O)c2)o1)[C@@H](CC)N(O)C=O`, the IC50 in assay [2] was below 200 nM; in assay [3], below 126 nM; at Tolloid-like protein 1, below 398 nM; on Tolloid-like protein 2, below 794 nM.
With `CCCCC[C@H](CN(O)C=O)C(=O)NCNC(=O)c1ccc(-c2ccccc2C(=O)O)o1`, the IC50 was below 200 nM in assay [2], below 126 nM in assay [3], below 398 nM on Tolloid-like protein 1 and below 794 nM on Tolloid-like protein 2.
As to `CCCCC[C@H](CN(O)C=O)C(=O)NCNC(=O)c1ccc(-c2cccc(S(=O)(=O)NC)c2)o1`, the IC50 in assay [1] is below 3980 nM; in assay [2], below 200 nM; in assay [3], below 126 nM; on Tolloid-like protein 1 it was below 398 nM; on Tolloid-like protein 2 it was below 794 nM.
For `CCCCC[C@H](CN(O)C=O)C(=O)NCNC(=O)c1ccc(-c2cccc(S(N)(=O)=O)c2)o1`, the concentration for half-maximal inhibition (IC50) in assay [1] is below 3980 nM; in assay [2] it was below 200 nM; in assay [3], below 126 nM; on Tolloid-like protein 1, below 398 nM; on Tolloid-like protein 2, below 794 nM.
`CCCCC[C@@H](C(=O)NCNC(=O)c1ccc(-c2ccc(OC)c(C(=O)O)c2)o1)[C@@H](CC)N(O)C=O`: the IC50 in assay [2] is below 200 nM; in assay [3] it was below 126 nM; at Tolloid-like protein 1, below 398 nM; at Tolloid-like protein 2 it was below 794 nM.
As for `CCOc1cc(-c2ccc(C(=O)NCNC(=O)[C@H](CCc3ccc4ccccc4c3)[C@@H](CC)N(O)C=O)o2)cc(P(=O)(O)O)c1`, the results for the IC50 in assay [1], in assay [2] and in assay [3] were below 3980 nM, below 200 nM and below 126 nM, respectively.
